Common to all, as to type: cell-based
The target of test [1] is T1, AR protein (Homo sapiens, UniProt P10275).
T1 construct: degradation activity of the compounds disclosed in the present disclosure on AR protein in VCaP cells; host or cells: VCaP
T1 sequence (P10275 1-920): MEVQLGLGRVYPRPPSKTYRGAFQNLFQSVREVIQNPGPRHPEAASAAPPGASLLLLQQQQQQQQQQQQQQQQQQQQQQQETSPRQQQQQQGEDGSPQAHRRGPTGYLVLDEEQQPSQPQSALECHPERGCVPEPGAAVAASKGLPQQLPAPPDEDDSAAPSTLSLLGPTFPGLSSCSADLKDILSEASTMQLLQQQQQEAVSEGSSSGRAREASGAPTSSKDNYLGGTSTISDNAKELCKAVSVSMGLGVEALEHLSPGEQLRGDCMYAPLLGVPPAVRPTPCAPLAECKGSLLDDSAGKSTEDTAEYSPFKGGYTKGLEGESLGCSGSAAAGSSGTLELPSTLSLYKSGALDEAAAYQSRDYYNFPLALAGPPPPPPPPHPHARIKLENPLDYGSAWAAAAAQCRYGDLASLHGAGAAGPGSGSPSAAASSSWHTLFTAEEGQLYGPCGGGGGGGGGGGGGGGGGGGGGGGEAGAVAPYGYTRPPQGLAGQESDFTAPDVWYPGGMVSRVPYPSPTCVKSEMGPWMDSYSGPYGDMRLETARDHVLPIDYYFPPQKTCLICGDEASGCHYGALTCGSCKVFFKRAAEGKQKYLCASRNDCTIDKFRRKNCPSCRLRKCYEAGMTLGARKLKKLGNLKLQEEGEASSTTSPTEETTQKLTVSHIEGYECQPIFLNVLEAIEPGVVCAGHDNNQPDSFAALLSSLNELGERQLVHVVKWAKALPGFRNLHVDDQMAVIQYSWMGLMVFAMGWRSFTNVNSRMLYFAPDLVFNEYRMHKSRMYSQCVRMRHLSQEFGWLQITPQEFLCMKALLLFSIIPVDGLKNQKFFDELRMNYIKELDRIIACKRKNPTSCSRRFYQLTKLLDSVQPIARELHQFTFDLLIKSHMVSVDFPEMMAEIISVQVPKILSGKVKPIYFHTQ
In words: Degradation of AR protein in VCaP cells (Western blot). The following applies: 8 hours; for inhibition at 0.01 µM: compound at 10 nM, read-out: Degradation rate of the AR protein in VCaP cells, 10 nM (%); for inhibition at 0.1 µM: compound at 100 nM, read-out: Degradation rate of the AR protein in VCaP cells, 100 nM (%). A digest of the protocol: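 Western blot readout: AR band grayscale normalised to GAPDH, used to derive degradation rate. Lysates came from VCaP cells exposed to compound for 8 h, with solvent controls run in parallel.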

Test [2] deals with VCaP cells. Briefly: Inhibition of proliferation of VCaP cells (WST-8). The settings on record: Homo sapiens, read-out: IC50 for inhibiting the proliferation of VCaP cells. In outline: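 Proliferation was read by WST-8 on day nine. Cells were VCaP FGC, seeded at 15000 cells per well in 10% FBS DMEM and kept at 37° C with 5% CO2.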
Test [3] deals with T2, AR protein (Homo sapiens, UniProt P10275, T878A).
T2 construct: degradation activity of the compounds disclosed in the present disclosure on AR protein in LNCaP cells; host or cells: LNCaP FGC
T2 sequence (P10275 1-920 T878A): T1 sequence (P10275 1-920) with T878A
In words: Degradation of AR protein in LNCaP cells (Western blot). The following applies: for inhibition at 0.01 µM: read-out: Degradation rates of the AR protein in LNCaP cells, 10 nM (%); for inhibition at 0.1 µM: read-out: Degradation rates of the AR protein in LNCaP cells, 100 nM (%). A digest of the protocol: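 Percent AR degradation was derived from GAPDH-normalised Western blot band intensities (infrared detection) in LNCaP lysates.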
In general terms: A western blot detects proteins with antibodies after separation by electrophoresis.

Test [4] concerns LNCaP FGC cells. Briefly: Inhibition of proliferation of LNCaP cells (WST-8). The following applies: Homo sapiens, LNCaP, 96 h. How it is done: The cells were cultured in a cell culture incubator with 5% CO2 at 37° C. overnight. […] On the sixth day, 96 well plates were taken out, and 20 μL of WST-8 (Beytime, C0040) reagent was added to each well.
For orientation: Tetrazolium assays rely on reduction of a dye to a coloured formazan, in cell work by metabolically active cells.

The mark [5] stands for this setting: read-out: IC50 for inhibiting the proliferation of LNCaP cells, LNCaP FGC cells, 96 hours, WST-8 absorbance at 450 nm.
Where [6] appears, read: VCaP cells, 168 hours, WST-8 absorbance at 450 nm.
Setting [7] is: LNCaP cells, compound 10 nM, 8 hours, Western blot grayscale, GAPDH internal reference.
Where [8] appears, read: LNCaP cells, compound 100 nM, 8 hours, Western blot grayscale, GAPDH internal reference.
Setting [9] is: LNCaP FGC cells, 96 hours, WST-8 absorbance at 450 nm, read-out: IC50 for inhibiting the proliferation of LNCaP cells.

Where a chain is given by its changes, count along the chain named. Like-named read-outs stand apart in the source and are kept apart here.

For the compound `N#Cc1ccc(O[C@H]2CC[C@H](NC(=O)c3ccc(N4CCC(N5CCC6(CC5)COc5cc7c(cc56)C(=O)N(C5CCC(=O)NC5=O)C7=O)CC4)nn3)CC2)cc1Cl` (stereo partly drawn) [Compound 48], the inhibition at 0.01 µM amounted to 69% in test [1] and 73% in test [3] (LNCaP, 8 h). The inhibition at 0.1 µM in test [1] came to 82%; in test [3] (LNCaP, 8 h), 91%. Further, the IC50 in test [2] (VCaP, 168 h) worked out at 180 nM; in test [4] (setting [5]), 1670 nM.

`N#Cc1ccc(O[C@H]2CC[C@H](NC(=O)c3ccc(N4CC(N5CCC6(CCc7ccc8c(c7O6)CN(C6CCC(=O)NC6=O)C8=O)CC5)C4)nn3)CC2)cc1Cl` (stereo partly drawn) [Compound 172]: the inhibition at 0.01 µM in test [1] was -9%; in test [3] (LNCaP, 8 h), 12%. Moreover, the inhibition at 0.1 µM is -14% in test [1] and 33% in test [3] (LNCaP, 8 h). Besides, the IC50 in test [2] (VCaP, 168 h) was 78800 nM; in test [4] (setting [5]), 91400 nM.

In the case of `COc1cc(O[C@H]2C(C)(C)[C@H](NC(=O)c3ccc(N4CCC(C)(CN5CCC6(CC5)COc5cc7c(cc5C6)C(=O)N(C5CCC(=O)NC5=O)C7=O)CC4)cc3)C2(C)C)ccc1C#N` (stereo partly drawn) [Compound 289], the inhibition at 0.01 µM is -21% in test [1] and 27% in test [3] (setting [7]). Further, the inhibition at 0.1 µM came to 15% in test [1] and 63% in test [3] (setting [8]). Moreover, the figures for the IC50 in test [2] (setting [6]) and in test [4] (setting [9]) were 82 nM and 66000 nM, respectively.

Take `CCC1(CN2CCC3(CC2)COc2c3ccc3c2CN(C2CCC(=O)NC2=O)C3=O)CCN(c2ccc(C(=O)N[C@H]3C(C)(C)[C@H](Oc4ccc(C#N)c(OC)c4)C3(C)C)cc2)CC1` (stereo partly drawn) [Compound 294]: the results for the inhibition at 0.01 µM in test [1] and in test [3] (setting [7]) were 13% and 54%, respectively. For the same compound, the inhibition at 0.1 µM was 62% in test [1] and 57% in test [3] (setting [8]). Also, the IC50 in test [2] (setting [6]) worked out at 2 nM; in test [4] (setting [9]), 77 nM.

On to `N#Cc1ccc(O[C@H]2CC[C@H](NC(=O)c3ccc(N4CCC(CN5CCC6(CC5)Oc5cc7c(cc5CC6(F)F)C(=O)N(C5CCC(=O)NC5=O)C7=O)CC4)nn3)CC2)cc1Cl` (stereo partly drawn) [Compound 18], for which the inhibition at 0.01 µM in test [1] turned out to be 59%; in test [3] (setting [7]) it was 7%. For the same compound, the inhibition at 0.1 µM in test [1] was determined as 69%; in test [3] (setting [8]), 57%. The IC50 stood at 110 nM in test [2] (setting [6]) and 4940 nM in test [4] (setting [9]).

For the compound `N#Cc1ccc(O[C@H]2CC[C@H](NC(=O)c3ccc(N4CCC(N5CCC6(CCc7cc8c(cc7O6)C(=O)N(C6CCC(=O)NC6=O)C8=O)CC5)CC4)nn3)CC2)cc1Cl` (stereo partly drawn) [Compound 26], the inhibition at 0.01 µM in test [1] came out at 48%; in test [3] (LNCaP, 8 h), 61%. The inhibition at 0.1 µM came to 56% in test [1] and 56% in test [3] (LNCaP, 8 h). Also, the IC50 was found to be 750 nM in test [2] (VCaP, 168 h) and 1200 nM in test [4] (setting [5]).

Turning to `COc1cc(O[C@H]2C(C)(C)[C@H](NC(=O)c3ccc(N4CCC(CN5CC6(CCc7ccc8c(c7O6)C(=O)N(C6CCC(=O)NC6=O)C8=O)C5)CC4)cc3)C2(C)C)ccc1C#N` (stereo partly drawn) [Compound 278], the results for the inhibition at 0.01 µM in test [1] and in test [3] (setting [7]) were -30% and -3%, respectively. The figures for the inhibition at 0.1 µM in test [1] and in test [3] (setting [8]) were -16% and 34%, respectively. Moreover, the IC50 in test [2] (setting [6]) turned out to be 9200 nM; in test [4] (setting [9]), 60000 nM.

Turning to `N#Cc1ccc(O[C@H]2CC[C@H](NC(=O)c3ccc(N4CCC(CC5CC5)(CN5CCC6(CC5)COc5c6ccc6c5CN(C5CCC(=O)NC5=O)C6=O)CC4)nn3)CC2)cc1Cl` (stereo partly drawn) [Compound 211], the inhibition at 0.01 µM in test [1] is -4%; in test [3] (setting [7]), 45%. For the same compound, the inhibition at 0.1 µM in test [1] is 46%; in test [3] (setting [8]), 28%. The IC50 came out at 2.5 nM in test [2] (VCaP, 168 h) and 55 nM in test [4] (read-out: IC50 for inhibiting the proliferation of LNCaP cells).

For `N#Cc1ccc(O[C@H]2CC[C@H](NC(=O)c3ccc(N4CCC(CN5CC6(CCc7cc8c(cc7O6)CN(C6CCC(=O)NC6=O)C8=O)C5)CC4)nn3)CC2)cc1Cl` (stereo partly drawn) [Compound 7], the results for the inhibition at 0.01 µM in test [1] and in test [3] (setting [7]) were 72% and 86%, respectively. Besides, the inhibition at 0.1 µM in test [1] and in test [3] (setting [8]) was 79% in each case. Besides, the results for the IC50 in test [2] (setting [6]) and in test [4] (setting [9]) were 3540 nM and 1570 nM, respectively.

`COc1cc(O[C@H]2C(C)(C)[C@H](NC(=O)c3ccc(N4CCC(CN5CCC6(CCc7cc8c(cc7O6)C(=O)N(C6CCC(=O)NC6=O)C8=O)CC5)CC4)cc3)C2(C)C)ccc1C#N` (stereo partly drawn) [Compound 276]: the inhibition at 0.01 µM in test [1] was -11%; in test [3] (setting [7]), 55%. The values for the inhibition at 0.1 µM in test [1] and in test [3] (setting [8]) were 59% and 67%, respectively. The results for the IC50 in test [2] (setting [6]) and in test [4] (setting [9]) were 35 nM and 8810 nM, respectively.

Regarding `N#Cc1ccc(O[C@H]2CC[C@H](NC(=O)c3ccc(N4CCC(CN5CC6(CCc7cc8c(cc7O6)C(=O)N(C6CCC(=O)NC6=O)C8)C5)CC4)nn3)CC2)cc1Cl` (stereo partly drawn) [Compound 8], the inhibition at 0.01 µM in test [1] is 24%; in test [3] (setting [7]), 78%. For the same compound, the inhibition at 0.1 µM in test [1] is 76%; in test [3] (setting [8]), 67%. In addition, the IC50 in test [2] (setting [6]) turned out to be 1 nM; in test [4] (setting [9]) it was 2090 nM.

Consider `N#Cc1ccc(O[C@H]2CC[C@H](NC(=O)c3ccc(N4CCC(CN5CCC6(CC5)COc5cc7c(cc5C6)C(=O)N(C5CCC(=O)NC5=O)C7=O)CC4)nn3)CC2)cc1Cl` (stereo partly drawn) [Compound 72], for which the inhibition at 0.01 µM in test [1] came out at 75%; in test [3] (setting [7]), 81%. The results for the inhibition at 0.1 µM in test [1] and in test [3] (setting [8]) were 85% and 92%, respectively. For the same compound, the IC50 in test [2] (setting [6]) stood at 100 nM; in test [4] (setting [9]), 50 nM.

The values above are taken from patent US20260234157A1, “COMPOUND AND METHOD FOR TARGETED DEGRADATION OF ANDROGEN RECEPTOR” (Gan & Lee Pharmaceuticals Co., Ltd., priority 2023, published 2026).
